# Target: T1, human SK3 channel (hKCa2.3) (Homo sapiens, UniProt Q9UGI6)
# T1 construct: expressed in transfected cells
# Assay: Automated whole cell patch-clamp (QPatch 16 HT), inhibition of SK3 current
# Type: cell-based
# Conditions: HEK-293 cells stably expressing hKCa2.3; symmetrical K+ solutions, free calcium 400 nM; effects normalized to N-methyl bicuculline
# Experimental: Automated whole cell patch-clamp recordings were performed using a QPatch 16 HT system and single-hole Qplates (Biolin Scientific, Sophion, Denmark) on HEK-293 cells stably expressing the human SK3 channel (hKCa2.3). Cells were cultured and prepared for experiments using normal cell culturing procedures. A total of 4-5 million cells were used per experiment. The Qpatch automatically generates giga sealing, whole-cell formation, compound application and recording of current. hKCa2.3 currents were recorded in symmetrical K^+ solutions, with an intracellular solution consisting of in mM: KCl 108; KOH/EGTA (ethylene glycol-bis(2-aminoethylether)-N,N,N′,N′-tetraacetic acid) 31.25/10; CaCl2) 8.1; MgCl2 1.2; HEPES (2-[4-(2-hydroxyethyl)piperazin-1-yl]ethanesulfonic acid) 10; KOH 15, pH adjusted to pH=7.2 with HCl. The free calcium concentration was calculated to 400 nM. The extracellular solution consisted of in mM: KCl 150; CaCl2) 0.1; MgCl2 3; HEPES 10; Glucose 10, pH=7.4 with KOH. The cells were held at 0 mV and hKCa2.3 currents were elicited by a linear voltage ramp from […] (200 ms in duration) applied every 5th second. The compound application protocol consisted of 12 recording periods lasting from 50-200 s: 1) Baseline recordings in extracellular solution; 2) Application of the positive control N-methyl bicuculline (100 μM), which is characterized by full efficacy, fast on- and off-rate; 3-4) Wash-out; 5-9) Increasing concentrations of test compound to establish an IC50 value; 10-11) Wash-out; 12) positive control with compound NS8593 (N-[(1R)-1,2,3,4-tetrahydro-1-naphthalenyl]-1H-benzimidazol-2-amine) (1 μM). Data were sampled at 10 kHz, 4th order Bessel filter, cut-off frequency 3 kHz. Currents were compensated for run-down. Potency was quantified as the concentration needed to inhibit half of the SK channel activity and reported as an IC50 value. All effects of compounds of the present invention as tested were normalized to the observed inhibitory effect of N-methyl bicuculline.
row,SMILES,IC50 [µM]
1,"CCN(CCO)C(=O)C(Nc1nc2ccccc2[nH]1)c1cccc(C(F)(F)F)c1 (centres unmarked) [Example 38, 2-[(1H-1,3-benzodiazol-2-yl)amino]-N-ethyl-N-(2-hydroxyethyl)-2-[3-(trifluoromethyl)phenyl]acetamide]",< 10
2,"CCN(CCO)C(=O)CC(Nc1nc2ccccc2[nH]1)c1cccc(C(F)(F)F)c1 (centres unmarked) [Example 41, 3-[(1H-1,3-benzodiazol-2-yl)amino]-N-ethyl-N-(2-hydroxy-ethyl)-3-[3-(trifluoromethyl)phenyl]propanamide]",< 10
3,"COCCNC(=O)CC(Nc1nc2ccccc2[nH]1)c1cccc(C(F)(F)F)c1 (centres unmarked) [Example 42, 3-[(1H-1,3-benzodiazol-2-yl)amino]-N-(2-methoxyethyl)-3-[3-(trifluoromethyl)phenyl]propanamide]",< 10
4,"COCCN(C)C(=O)CC(Nc1nc2ccccc2[nH]1)c1cccc(C(F)(F)F)c1 (centres unmarked) [Example 43, 3-[(1H-1,3-benzodiazol-2-yl)amino]-N-(2-methoxyethyl)-N-methyl-3-[3-(trifluoromethyl)phenyl]propanamide]",< 10
5,"CNCCN(C)C(=O)CC(Nc1nc2ccccc2[nH]1)c1cccc(C(F)(F)F)c1 (centres unmarked) [Example 44, 3-[(1H-1,3-benzodiazol-2-yl)amino]-N-methyl-N-[2-(methylamino)ethyl]-3-[3-(trifluoromethyl)phenyl]propanamide]",10 to 100
6,"CCN(CCN(C)C)C(=O)CC(Nc1nc2ccccc2[nH]1)c1cccc(C(F)(F)F)c1 (centres unmarked) [Example 45, 3-[(1H-1,3-benzodiazol-2-yl)amino]-N-[2-(dimethylamino)ethyl]-N-ethyl-3-[3-(trifluoromethyl)phenyl]propanamide]",10 to 100
7,"COC(=O)[C@@H](C)NC(=O)CC(Nc1nc2ccccc2[nH]1)c1cccc(C(F)(F)F)c1 (stereo partly drawn) [Example 46, Methyl (2R)-2-{3-[(1H-1,3-benzodiazol-2-yl)amino]-3-[3-(trifluoromethyl)phenyl]propanamido}propanoate]",< 10

# Continued, values first:
row,IC50 [µM],SMILES
1,< 10,"CCN(CC(=O)OC)C(=O)CC(Nc1nc2ccccc2[nH]1)c1cccc(C(F)(F)F)c1 (centres unmarked) [Example 47, Methyl 2-{3-[(1H-1,3-benzodiazol-2-yl)amino]-N-ethyl-3-[3-(trifluoromethyl)phenyl]propanamido}acetate]"
2,< 10,"CCOC(=O)CN(CC)C(=O)CC(Nc1nc2ccccc2[nH]1)c1cccc(C(F)(F)F)c1 (centres unmarked) [Example 48, Ethyl 2-{3-[(1H-1,3-benzodiazol-2-yl)amino]-N-ethyl-3-[3-(trifluoromethyl)phenyl]propanamido}acetate]"
3,10 to 100,"CCN(CCO)C(=O)CC(Nc1nc2c(CO)cccc2[nH]1)c1cccc(C(F)(F)F)c1 (centres unmarked) [Example 49, N-ethyl-N-(2-hydroxyethyl)-3-{[4-(hydroxymethyl)-1H-1,3-benzodiazol-2-yl]amino}-3-[3-(trifluoromethyl)phenyl]propanamide]"
4,10 to 100,"CN(CC#N)C(=O)CC(Nc1nc2c(CO)cccc2[nH]1)c1cccc(C(F)(F)F)c1 (centres unmarked) [Example 50, N-(cyanomethyl)-3-{[4-(hydroxymethyl)-1H-1,3-benzodiazol-2-yl]amino}-N-methyl-3-[3-(trifluoromethyl)phenyl]propanamide]"
5,10 to 100,"CN(CC#N)C(=O)CC(Nc1nc2c(CCO)cccc2[nH]1)c1cccc(C(F)(F)F)c1 (centres unmarked) [Example 51, N-(cyanomethyl)-3-{[4-(2-hydroxyethyl)-1H-1,3-benzodiazol-2-yl]amino}-N-methyl-3-[3-(trifluoromethyl)phenyl]propanamide]"
6,10 to 100,"CCN(CC#N)C(=O)CC(Nc1nc2c(CCO)cccc2[nH]1)c1cccc(C(F)(F)F)c1 (centres unmarked) [Example 52, N-(cyanomethyl)-N-ethyl-3-{[4-(2-hydroxyethyl)-1H-1,3-benzodiazol-2-yl]amino}-3-[3-(trifluoromethyl)phenyl]propanamide]"
7,10 to 100,"CCN(CC#N)C(=O)CC(Nc1nc2c(CO)cccc2[nH]1)c1cccc(C(F)(F)F)c1 (centres unmarked) [Example 53, N-(cyanomethyl)-N-ethyl-3-{[4-(hydroxymethyl)-1H-1,3-benzodiazol-2-yl]amino}-3-[3-(trifluoromethyl)phenyl]propanamide]"
